This note sets out measurements from PubChem BioAssay AID2060610 (Molecular Pharmacology Branch, DTP, NCI, 2025).

For the test, the system named is 616215-338-R-J1-PDC complex spheroids, viability % test/control. As to the kind of experiment: Anticancer human tumor 616215-338-R-J1-PDC patient-derived colon adenocarcinoma cell line growth inhibition [CLK]. To be noted: for viability, T/C: stronger effect = lower value. In a few lines: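 Multi-cell-type spheroids combined patient-derived tumor cells with HUVEC endothelial cells and human mesenchymal stem cells. Paired agents were dosed in half-log steps down from about clinical Cmax, or from 10 microM where Cmax was unknown.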

[1] abbreviates: curve of first compound, second compound 0.0316 µM.
Setting [2] is: curve of first compound, second compound 0.1 µM.
The mark [3] stands for this setting: curve of first compound, second compound 0.316 µM.
Where [4] appears, read: curve of first compound, second compound 1 µM.
Where [5] appears, read: curve of first compound, second compound 3.16 µM.
The mark [6] stands for this setting: curve of first compound, second compound 10 µM.
[7] abbreviates: second compound 0.0316 µM, first compound 0.0316 µM.
The mark [8] stands for this setting: second compound 0.0316 µM, first compound 0.1 µM.
Setting [9] is: second compound 0.0316 µM, first compound 0.316 µM.
[10] abbreviates: second compound 0.0316 µM, first compound 1 µM.
The mark [11] stands for this setting: second compound 0.0316 µM, first compound 3.16 µM.
Setting [12] is: second compound 0.0316 µM, first compound 10 µM.
Where [13] appears, read: second compound 0.1 µM, first compound 0.0316 µM.
Setting [14] is: second compound 0.1 µM, first compound 0.1 µM.
Setting [15] is: second compound 0.1 µM, first compound 0.316 µM.
Where [16] appears, read: second compound 0.1 µM, first compound 1 µM.
Where [17] appears, read: second compound 0.1 µM, first compound 3.16 µM.
Where [18] appears, read: second compound 0.1 µM, first compound 10 µM.
[19] abbreviates: second compound 0.316 µM, first compound 0.0316 µM.
[20] abbreviates: second compound 0.316 µM, first compound 0.1 µM.
Setting [21] is: second compound 0.316 µM, first compound 0.316 µM.
[22] abbreviates: second compound 0.316 µM, first compound 1 µM.
Where [23] appears, read: second compound 0.316 µM, first compound 3.16 µM.
Where [24] appears, read: second compound 0.316 µM, first compound 10 µM.
Setting [25] is: second compound 1 µM, first compound 0.0316 µM.
Setting [26] is: second compound 1 µM, first compound 0.1 µM.
Where [27] appears, read: second compound 1 µM, first compound 0.316 µM.
The mark [28] stands for this setting: second compound 1 µM, first compound 1 µM.
Where [29] appears, read: second compound 1 µM, first compound 3.16 µM.
Setting [30] is: second compound 1 µM, first compound 10 µM.
Setting [31] is: second compound 3.16 µM, first compound 0.0316 µM.
The mark [32] stands for this setting: second compound 3.16 µM, first compound 0.1 µM.
Setting [33] is: second compound 3.16 µM, first compound 0.316 µM.
Where [34] appears, read: second compound 3.16 µM, first compound 1 µM.
Where [35] appears, read: second compound 3.16 µM, first compound 3.16 µM.
[36] abbreviates: second compound 3.16 µM, first compound 10 µM.
Setting [37] is: second compound 10 µM, first compound 0.0316 µM.
Setting [38] is: second compound 10 µM, first compound 0.1 µM.
Where [39] appears, read: second compound 10 µM, first compound 0.316 µM.
[40] abbreviates: second compound 10 µM, first compound 1 µM.
Where [41] appears, read: second compound 10 µM, first compound 3.16 µM.
The mark [42] stands for this setting: second compound 10 µM, first compound 10 µM.

Where “and” joins values, the source holds several entries; their conditions need not be identical. Identical values can stand only once.
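Further: spheroids exposed to agents for 7 days.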
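Wherever viability, T/C is given: 100% = DMSO vehicle wells.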

With `CCCS(=O)(=O)Nc1ccc(F)c(C(=O)c2c[nH]c3ncc(-c4ccc(Cl)cc4)cc23)c1F` + CN1CCN(c2cc(C(=O)Nc3cc4cc(-c5cnn(C)c5)ccc4cn3)ccn2)CC1, the IC50 (usually the concentration at which inhibition is half-maximal) by setting is: under setting [1], 1510 nM; under setting [2], 1690 nM; under setting [3], < 31.6 nM; under setting [4], < 31.6 nM; under setting [5], < 31.6 nM; under setting [6], < 31.6 nM. Besides, the viability, T/C (usually the result in the treated group divided by that in the control group, in per cent) by setting is: under setting [7], 21.5%; under setting [8], 34.8%; under setting [9], 99.9%; under setting [10], 98.2%; under setting [11], 25.5%; under setting [12], 0.01%. In addition, the viability, T/C under setting [13] was 24.7%; the viability, T/C under setting [14] was 36.4%; the viability, T/C under setting [15] is 105%; the viability, T/C under setting [16] was 105%; the viability, T/C under setting [17] was 28.9%; the viability, T/C under setting [18] was 0.01%. Besides, the viability, T/C is 10.4% under setting [19]; 12.8% under setting [20]; 38.1% under setting [21]; 29.9% under setting [22]; 21% under setting [23]; 0% under setting [24]. The viability, T/C is, setting by setting: under setting [25], 0.01%; under setting [26], 0.08%; under setting [27], 0.17%; under setting [28], 1.99%; under setting [29], 0.6%; under setting [30], 0.01%. In addition, the viability, T/C by setting is: under setting [31], 0.01%; under setting [32], 0.06%; under setting [33], 0.14%; under setting [34], 0.13%; under setting [35], 0.08%; under setting [36], 0%. In addition, the viability, T/C by setting is: under setting [37], 0.03%; under setting [38], 0.07%; under setting [39], 0.17%; under setting [40], 0.19%; under setting [41], 0.25%; under setting [42], 0%.

Consider `COC1C=CCC(C)C(C)S(=O)(=O)NC(=O)c2ccc3c(c2)N(CC2CCC21)CC1(CCCc2cc(Cl)ccc21)CO3` (stereo not drawn), for which the viability, T/C reads like this: (compound 0.0316 µM) 42.2% and 92.1%; (compound 0.1 µM) 33.1% and 98.1%; (compound 0.316 µM) 95.7% and 96.9%; (compound 1 µM) 104% and 101%; (compound 3.16 µM) 38.7% and 103%. For the same compound, the IC50 (curve of compound) is 2050 nM and > 10000 nM.

Turning to `Nc1ccccc1NC(=O)c1ccc(CNC(=O)OCc2cccnc2)cc1` + CNC(=O)c1ccc(Nc2nc(OC3CCCC3)c3c(-c4ccc5nc(C)oc5c4)c[nH]c3n2)c(OC)c1, the IC50 was 5080 nM under setting [1]; 85 nM under setting [2]; < 31.6 nM under setting [3]; < 31.6 nM under setting [4]; < 31.6 nM under setting [5]; < 31.6 nM under setting [6]. In addition, the viability, T/C is, setting by setting: under setting [7], 86.2%; under setting [8], 82%; under setting [9], 80.2%; under setting [10], 96.7%; under setting [11], 72.5%; under setting [12], 17.7%. The viability, T/C by setting is: under setting [13], 56.1%; under setting [14], 48.9%; under setting [15], 37.3%; under setting [16], 36.1%; under setting [17], 36.7%; under setting [18], 10.6%. Also, the viability, T/C by setting is: under setting [19], 40.7%; under setting [20], 39.4%; under setting [21], 35.9%; under setting [22], 34%; under setting [23], 29.3%; under setting [24], 7.21%. Also, the viability, T/C by setting is: under setting [25], 42.7%; under setting [26], 36.7%; under setting [27], 32.8%; under setting [28], 29.1%; under setting [29], 24.8%; under setting [30], 6.92%. Moreover, the viability, T/C was 35.1% under setting [31]; 35.8% under setting [32]; 28.5% under setting [33]; 26.9% under setting [34]; 22.7% under setting [35]; 3.91% under setting [36]. Also, the viability, T/C is, setting by setting: under setting [37], 34.3%; under setting [38], 30.8%; under setting [39], 28%; under setting [40], 24%; under setting [41], 23.8%; under setting [42], 3.95%.

As to `COC1C=CCC(C)C(C)S(=O)(=O)NC(=O)c2ccc3c(c2)N(CC2CCC21)CC1(CCCc2cc(Cl)ccc21)CO3` (stereo not drawn) + CN1CCN(c2cc(C(=O)Nc3cc4cc(-c5cnn(C)c5)ccc4cn3)ccn2)CC1, the IC50 under setting [1] is 2360 nM; the IC50 under setting [2] was 2870 nM; the IC50 under setting [3] was < 31.6 nM; the IC50 under setting [4] was < 31.6 nM; the IC50 under setting [5] is < 31.6 nM; the IC50 under setting [6] is < 31.6 nM. The viability, T/C was 45.7% under setting [7]; 32.5% under setting [8]; 111% under setting [9]; 106% under setting [10]; 41.9% under setting [11]; 0.01% under setting [12]. For the same compound, the viability, T/C is 41.4% under setting [13]; 44.4% under setting [14]; 122% under setting [15]; 116% under setting [16]; 47.2% under setting [17]; 0.01% under setting [18]. In addition, the viability, T/C reads like this: under setting [19], 9.08%; under setting [20], 9.53%; under setting [21], 21.3%; under setting [22], 28.6%; under setting [23], 20%; under setting [24], 0.01%. The viability, T/C by setting is: under setting [25], 0.68%; under setting [26], 0.08%; under setting [27], 0.17%; under setting [28], 0.14%; under setting [29], 0.94%; under setting [30], 0.01%. Also, the viability, T/C is 0.04% under setting [31]; 0.07% under setting [32]; 0.18% under setting [33]; 0.16% under setting [34]; 0.18% under setting [35]; 0.01% under setting [36]. In addition, the viability, T/C is, setting by setting: under setting [37], 0.08%; under setting [38], 0.09%; under setting [39], 0.24%; under setting [40], 0.27%; under setting [41], 0.33%; under setting [42], 0.01%.

For `CC(=O)O[C@H]1C(=O)[C@@]2(C)[C@H]([C@H](OC(=O)c3ccccc3)[C@]3(O)C[C@H](OC(=O)[C@H](O)[C@@H](NC(=O)c4ccccc4)c4ccccc4)C(C)=C1C3(C)C)[C@]1(OC(C)=O)CO[C@@H]1C[C@@H]2O`, the viability, T/C reads like this: (compound 0.0316 µM) 32.9% and 37.9%; (compound 0.1 µM) 22.2% and 31.7%; (compound 0.316 µM) 18.2% and 24%; (compound 1 µM) 15.4% and 23.8%; (compound 3.16 µM) 19.5% and 23.1%; (compound 10 µM) 24% and 28.7%. Also, under “curve of compound”, the IC50 was < 31.6 nM.

With `CCc1c2c(nc3ccc(O)cc13)-c1cc3c(c(=O)n1C2)COC(=O)[C@]3(O)CC`, the viability, T/C is 110% and 111% (compound 0.00316 µM); 69.5% and 63.4% (compound 0.01 µM); 36.6% and 33.2% (compound 0.0316 µM); 17.5% and 24.2% (compound 0.1 µM); 11% and 16.1% (compound 0.316 µM); 5.51% and 7.45% (compound 1 µM). For the same compound, the IC50 (curve of compound) was 19.8 nM and 17.4 nM.

For the compound `COc1c(OCCCN2CCOCC2)ccc2c3n(c(=NC(=O)c4cnc(N)nc4)nc12)CCN3`, the viability, T/C is, setting by setting: (compound 0.00316 µM) 101% and 89.7%; (compound 0.01 µM) 111% and 96.4%; (compound 0.0316 µM) 106% and 114%; (compound 0.1 µM) 57.7% and 74.8%; (compound 0.316 µM) 36.1% and 46%; (compound 1 µM) 29% and 39.8%. Where the note is “curve of compound”, the IC50 is 143 nM and 245 nM.
